The test system of one data set is E. coli MG1655. Put plainly: Cylinder plate assay for antibiotic activity. The format is cell-based. The following applies: E. coli MG1655 testing strain. The protocol: Fermentation with Bacillus cereus (ATCC 7004) was conducted according to the method described in EXAMPLE 2 except that the initial volume was increased to 20 liters. A test for the presence of antibiotic was conducted with E. coli MG1655 as the testing strain with final fermentation broth or partially purified PI-PLC prepared according to the method described in EXAMPLES 3-5. The test was conducted as a.cylinder plate assay. See Brantner, Pharmazie 52(1):34-40, 1997.

Data set [1] relates to Eimeria acervulina and Clostridium perfringens. It is filed as in vivo, broiler chickens. The following applies: Trial I.
Data set [2] relates to E. acervulina and Clostridium perfringens. The format is in vivo, broiler chickens.
For data set [3], the system named is Eimeria acervulina sporozoites. Put plainly: In vitro invasion of BHK cells by Eimeria acervulina sporozoites. The format is cell-based. To be noted: B. cereus PI-PLC 0.0403 U/mL, recombinant 0.261 U/mL. The protocol: (§1) Eineria acervulina sporozoites or Eimeria tenella sporozoites and cultured baby hamster kidney (BHK) cells were prepared by published methods. See Augustine, Avian and Poultry Biology Reviews 1:113-122, 2000. For cell pretreatment, cell cultures were overlaid with dilutions of enzymes as described in Table 11, and examined for morphological changes from 5 to 45 min post overlay. After 45 minutes, the monolayer cultures were washed twice, then inoculated with untreated E. acervulina or E. tenella sporozoites. For application during infection, sporozoites were suspended in the appropriate dilution of the enzyme and inoculated immediately into the cell cultures. After 45 minutes incubation, cultures were fixed, stained, and the invasion was quantified.
(§2) Observations were made looking for changes in gross morphology of sporozoites or cells due to enzyme treatment. At the enzyme levels used in these experiments, no morphological change was noted. The sporozoite invasion of the cultured cells was measured after the two methods of enzyme treatment, as well as without enzyme treatment, by histological staining and microscopy procedures. See Augustine, supra.

In data set [4] the test system is Eimeria tenella sporozoites. Put plainly: In vitro invasion of BHK cells by Eimeria tenella sporozoites. It is filed as cell-based. The following applies: B. cereus PI-PLC 0.0403 U/mL, recombinant 0.261 U/mL. The protocol: as §1, §2
The test system of data set [5] is E. acervulina, E. maxima and Clostridium perfringens. It is filed as in vivo, broiler chickens. The following applies: infected.
For data set [6], the system named is E. acervulina, E. maxima, and C. perfringens. It is filed as in vivo, broiler chickens. The following applies: Trial III; infected; no PI-PLC (T4 mannanase 100 MU/ton; T9 salinomycin 60 g/ton+BMD 50 g/ton).
[7] abbreviates: mean of 4 replicates, infected, PI-PLC 0.34 g/ton pure basis (T3, T4) or Sacox 60 g/ton + BMD-50 50 g/ton (T2) in feed.
Setting [8] is: single replicate (cage) values, infected, PI-PLC 0.34 g/ton pure basis (T3, T4) or Sacox 60 g/ton + BMD-50 50 g/ton (T2) in feed.
Setting [9] is: Trial II T4 (Rec), T7 (Wt), infected, 10 U/lb.
[10] abbreviates: Application of Enzyme During Infection, Test 2, listed as PI-PLC from B. cereus.
The mark [11] stands for this setting: Cell Pretreatment with Enzyme Followed by Wash, Test 1, mannanase 5100 U/mL, listed as PI-PLC from B. cereus.
The mark [12] stands for this setting: Cell Pretreatment with Enzyme Followed by Wash, Test 2, mannanase 5100 U/mL, listed as PI-PLC from B. cereus.
Setting [13] is: Trial IV, PI-PLC 30 U/lb, Man. 121 MU/ton, BMD 50 g/ton, salinomycin 60 g/ton.
The mark [14] stands for this setting: Trial IV Test 13, Man. 5x at 506 MU/ton.
The mark [15] stands for this setting: Cell Pretreatment with Enzyme Followed by Wash, Test 1, mannanase 5100 U/mL.
[16] abbreviates: Cell Pretreatment with Enzyme Followed by Wash, Test 2, mannanase 5100 U/mL.

The values that follow come from patent US7723091B2 (priority 1999, dated 2010).

“And” between values parts separate entries of the source, which are not always exact repeats. Equal values may be shown once. Read-outs that look alike come from different tables or passages of the source. Marks after values point to notes of the source that are not given here.

In the case of “phosphatidylinositol specific phospholipase C [Wild type PI-PLC]”, the “clearing zone indicating antibiotic activity” value in the data set on E. coli MG1655 was “No clearing zone”. The “performance compared with the Salinomycin+BMD treatment” value in data set [1] (by all criteria (Tables 4-5)) is recorded as “worked as well as or better than the Salinomycin+BMD treatment”. Also, in data set [1] (setting [7]), the “Average Body Weight at 21 Days, Mean” value was 378.71 g and 373.14 g. In addition, the “Average Feed Conversion (0-21 days) Corrected for Weight of Mortality Birds, Mean” value in data set [1] (setting [7]) was 1.425 and 1.419. In addition, the “Average Body Weight at 21 Days” value in data set [1] (setting [8]) was 377.83 g and 366.67 g and 383.83 g and 361.17 g and 378.83 g and 361.33 g and 374.33 g and 403.40 g. Also, in data set [1] (setting [8]), the “Average Feed Conversion (0-21 days) Corrected for Weight of Mortality Birds” value is 1.438 and 1.404 and 1.407 and 1.445 and 1.423 and 1.421 and 1.432 and 1.406. Besides, in data set [2] (setting [9]), the “8-21 Day Feed Conversion (Corrected)” value is reported as 1.876. Besides, the “8-21 Day Weight Gain” value in data set [2] (setting [9]) stood at 298.98. Further, the “Average Intestinal Lesion Score” value in data set [2] (setting [9]) is reported as 1.267. Besides, in data set [2] (Trial II, same concentration (10 U/lb)), the “effectiveness compared with recombinant counterpart” value is on record as “did not work as effectively as its recombinant counterpart”. Moreover, the “Invasion counts (mean ± standard error of the mean)” value in data set [3] (Application of Enzyme During Infection, Test 1, listed as PI-PLC from B. cereus) was 33 ± 3^b; in data set [3] (setting [10]), 25 ± 2^ab; in data set [3] (setting [11]), 15 ± 1^b; in data set [3] (setting [12]) it was 26 ± 1^ab; in data set [4] (Application of Enzyme During Infection, Test 1, mannanase 5100 U/mL, listed as PI-PLC from B. cereus), 52 ± 13^ab; in data set [4] (setting [10]) it was 37 ± 2^ab. In addition, the “Invasion counts (mean ± standard error of the mean)” value in data set [4] (setting [11]) is listed as 38 ± 2^b; in data set [4] (setting [12]), 21 ± 2^a.

For `CC[C@@H](C(=O)[C@@H](C)[C@@H](O)[C@H](C)[C@@H]1O[C@@H]([C@@H](CC)C(=O)O)CC[C@@H]1C)[C@H]1O[C@]2(C=C[C@@H](O)[C@]3(CC[C@@](C)([C@H]4CC[C@](O)(CC)[C@H](C)O4)O3)O2)[C@H](C)C[C@@H]1C` [S, Salinomycin, reference compound], in data set [5] (setting [13]), the “Feed Conversion Day 0-21” value worked out at 1.709, the “Feed Conversion Day 8-21” value worked out at 1.719, the “Lesion Score E. acer. Upper” value is 1.00 and the “Lesion Score E. max. Middle” value came to 1.09. In data set [5] (setting [13]), the “Live Weight Day 21” value is on record as 0.496, the “Weight Gain Day 0-21” value was 0.458 and the “Weight Gain Day 8-21” value amounted to 0.368.

For the molecule “Bacitracin methylene disalicylate [reference compound]”, in data set [5] (setting [13]), the “Feed Conversion Day 0-21” value amounted to 1.707, the “Feed Conversion Day 8-21” value is recorded as 1.770, the “Lesion Score E. acer. Upper” value is given as 2.25 and the “Lesion Score E. max. Middle” value was found to be 1.94. In data set [5] (setting [13]), the “Live Weight Day 21” value was determined as 0.490, the “Weight Gain Day 0-21” value turned out to be 0.453 and the “Weight Gain Day 8-21” value was determined as 0.352.

Take endo-1,4- -D-mannanase [β-mannanase]: in data set [6], the “Feed Consumption Day 0-21” value is on record as 10.787^abc, the “Feed Consumption Day 8-21” value was 8.435^abc, the “Feed Conversion Day 0-21” value is 1.501^cd and the “Feed Conversion Day 8-21” value is on record as 1.536^c. Besides, in data set [6], the “Lesion Scores E. acer.” value is recorded as 1.16^ab, the “Lesion Scores E. max.” value is 1.44^ab, the “Live Wt. Day 21” value is 0.652^bc and the “Weight AF/G Treatment (weight adjusted feed conversion)” value was 1.465. Moreover, in data set [6], the “Weight Gain Day 0-21” value is given as 0.611^bc and the “Weight Gain Day 8-21” value was 0.490^b. Besides, in data set [5] (setting [14]), the “Feed Conversion Day 0-21” value is listed as 1.740, the “Feed Conversion Day 8-21” value is reported as 1.813, the “Lesion Score E. acer. Upper” value came out at 2.13 and the “Lesion Score E. max. Middle” value was 2.00. Further, in data set [5] (setting [14]), the “Live Weight Day 21” value is on record as 0.471, the “Weight Gain Day 0-21” value came to 0.437 and the “Weight Gain Day 8-21” value turned out to be 0.339. Also, in data set [5] (setting [13]), the “Feed Conversion Day 0-21” value came to 1.803, the “Feed Conversion Day 8-21” value is reported as 1.849, the “Lesion Score E. acer. Upper” value was 1.94 and the “Lesion Score E. max. Middle” value is reported as 1.34. Besides, in data set [5] (setting [13]), the “Live Weight Day 21” value was found to be 0.483, the “Weight Gain Day 0-21” value was determined as 0.433 and the “Weight Gain Day 8-21” value is recorded as 0.338. For the same molecule, the “Invasion counts (mean ± standard error of the mean)” value in data set [3] (setting [15]) is 16 ± 1^b. Also, the “Invasion counts (mean ± standard error of the mean)” value in data set [3] (setting [16]) is listed as 29 ± 2^ab. The “Invasion counts (mean ± standard error of the mean)” value in data set [4] (Application of Enzyme During Infection, Test 1, mannanase 5100 U/mL) is on record as 46 ± 6^ab. The “Invasion counts (mean ± standard error of the mean)” value in data set [4] (setting [15]) is given as 35 ± 1^b. The “Invasion counts (mean ± standard error of the mean)” value in data set [4] (setting [16]) is on record as 19 ± 5^a.
